Source: patent publication US20260007599A1, “TICAGRELOR IV FORMULATIONS FOR USE IN THE TREATMENT OF GRAM-POSITIVE BACTEREMIA” (Hyloris Developments SA, priority 2023, published 2026)
Marks after values point to notes of the source that are not given here.

Test: Solubilization of ticagrelor in unbuffered cyclodextrin stock solutions in milli Q water, appearance on shaking platform;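 on Appearance in cyclodextrin: plus means clear and fully dissolved while plus-minus means clear solution with precipitation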
Type: physicochemical
Protocol: In a first example two different types of cyclodextrin were used and compared for the solubilization of ticagrelor. An unbuffered stock solution of HPBCD or SBECD was made in water at the target concentrations of 20 w/w %, 25 w/w %, 30 w/w %, 35 w/w % and 40 w/w %. Ticagrelor was added slowly under vortex. Ticagrelor was used at concentrations of 5, 10 or 14 mg/ml in milli Q water. The ticagrelor-cyclodextrin solutions were left on a shaking platform. No sonification or heat was applied.

CCCSc1nc(N[C@@H]2C[C@H]2c2ccc(F)c(F)c2)c2nnn([C@@H]3C[C@H](OCCO)[C@@H](O)[C@H]3O)c2n1 [ticagrelor, (1S,2S,3R,5S)-3-{7-[(1R,2S)-2-(3,4-difluorophenyl)cyclopropylamino]5-(propylthio)-3H-(1,2,3)triazolo (4,5-D)pyrimidin-3-yl}-5-(2 hydroxyethoxy) cyclopentane-1,2-diol]
Appearance in cyclodextrin (HPβCD 20% w/w, ticagrelor 5 mg/ml, after 5 min of shaking): − (translucent solution with precipitation)
Appearance in cyclodextrin (HPβCD 20% w/w, ticagrelor 5 mg/ml, after 30 min of shaking): +/−
Appearance in cyclodextrin (HPβCD 20% w/w, ticagrelor 5 mg/ml, after 60 min of shaking): +/−
Appearance in cyclodextrin (HPβCD 20% w/w, ticagrelor 5 mg/ml, after 3 h of shaking): +/−
Appearance in cyclodextrin (HPβCD 20% w/w, ticagrelor 5 mg/ml, after overnight shaking): − (translucent solution with precipitation)
Appearance in cyclodextrin (HPβCD 20% w/w, ticagrelor 10 mg/ml, after 5 min of shaking): − (translucent solution with precipitation)
Appearance in cyclodextrin (HPβCD 20% w/w, ticagrelor 10 mg/ml, after 30 min of shaking): − (translucent solution with precipitation)
Appearance in cyclodextrin (HPβCD 20% w/w, ticagrelor 10 mg/ml, after 60 min of shaking): − (translucent solution with precipitation)
Appearance in cyclodextrin (HPβCD 20% w/w, ticagrelor 10 mg/ml, after 3 h of shaking): − (translucent solution with precipitation)
Appearance in cyclodextrin (HPβCD 20% w/w, ticagrelor 10 mg/ml, after overnight shaking): − (translucent solution with precipitation)
Appearance in cyclodextrin (HPβCD 20% w/w, ticagrelor 14 mg/ml, after 5 min of shaking): − (translucent solution with precipitation)
Appearance in cyclodextrin (HPβCD 20% w/w, ticagrelor 14 mg/ml, after 30 min of shaking): − (translucent solution with precipitation)
Appearance in cyclodextrin (HPβCD 20% w/w, ticagrelor 14 mg/ml, after 60 min of shaking): − (translucent solution with precipitation)
Appearance in cyclodextrin (HPβCD 20% w/w, ticagrelor 14 mg/ml, after 3 h of shaking): − (translucent solution with precipitation)
Appearance in cyclodextrin (HPβCD 20% w/w, ticagrelor 14 mg/ml, after overnight shaking): − (translucent solution with precipitation)
Appearance in cyclodextrin (HPβCD 25% w/w, ticagrelor 5 mg/ml, after 5 min of shaking): − (translucent solution with precipitation)
Appearance in cyclodextrin (HPβCD 25% w/w, ticagrelor 5 mg/ml, after 30 min of shaking): +/−
Appearance in cyclodextrin (HPβCD 25% w/w, ticagrelor 5 mg/ml, after 60 min of shaking): +/−
Appearance in cyclodextrin (HPβCD 25% w/w, ticagrelor 5 mg/ml, after 3 h of shaking): +/−
Appearance in cyclodextrin (HPβCD 25% w/w, ticagrelor 5 mg/ml, after overnight shaking, after one hour of sonication): +* (clear, appeared completely dissolved)
Appearance in cyclodextrin (HPβCD 25% w/w, ticagrelor 10 mg/ml, after 5 min of shaking): − (translucent solution with precipitation)
Appearance in cyclodextrin (HPβCD 25% w/w, ticagrelor 10 mg/ml, after 30 min of shaking): − (translucent solution with precipitation)
Appearance in cyclodextrin (HPβCD 25% w/w, ticagrelor 10 mg/ml, after 60 min of shaking): − (translucent solution with precipitation)
Appearance in cyclodextrin (HPβCD 25% w/w, ticagrelor 10 mg/ml, after 3 h of shaking): − (translucent solution with precipitation)
Appearance in cyclodextrin (HPβCD 25% w/w, ticagrelor 10 mg/ml, after overnight shaking): − (translucent solution with precipitation)
Appearance in cyclodextrin (HPβCD 25% w/w, ticagrelor 14 mg/ml, after 5 min of shaking): − (translucent solution with precipitation)
Appearance in cyclodextrin (HPβCD 25% w/w, ticagrelor 14 mg/ml, after 30 min of shaking): − (translucent solution with precipitation)
Appearance in cyclodextrin (HPβCD 25% w/w, ticagrelor 14 mg/ml, after 60 min of shaking): − (translucent solution with precipitation)
Appearance in cyclodextrin (HPβCD 25% w/w, ticagrelor 14 mg/ml, after 3 h of shaking): − (translucent solution with precipitation)
Appearance in cyclodextrin (HPβCD 25% w/w, ticagrelor 14 mg/ml, after overnight shaking): − (translucent solution with precipitation)
Appearance in cyclodextrin (HPβCD 30% w/w, ticagrelor 5 mg/ml, after 5 min of shaking): − (translucent solution with precipitation)
Appearance in cyclodextrin (HPβCD 30% w/w, ticagrelor 5 mg/ml, after 30 min of shaking): +/−
Appearance in cyclodextrin (HPβCD 30% w/w, ticagrelor 5 mg/ml, after 60 min of shaking): +/−
Appearance in cyclodextrin (HPβCD 30% w/w, ticagrelor 5 mg/ml, after 3 h of shaking): +/−
Appearance in cyclodextrin (HPβCD 30% w/w, ticagrelor 5 mg/ml, after overnight shaking): + (clear, appeared completely dissolved)
Appearance in cyclodextrin (HPβCD 30% w/w, ticagrelor 10 mg/ml, after 5 min of shaking): − (translucent solution with precipitation)
Appearance in cyclodextrin (HPβCD 30% w/w, ticagrelor 10 mg/ml, after 30 min of shaking): − (translucent solution with precipitation)
Appearance in cyclodextrin (HPβCD 30% w/w, ticagrelor 10 mg/ml, after 60 min of shaking): − (translucent solution with precipitation)
Appearance in cyclodextrin (HPβCD 30% w/w, ticagrelor 10 mg/ml, after 3 h of shaking): − (translucent solution with precipitation)
Appearance in cyclodextrin (HPβCD 30% w/w, ticagrelor 10 mg/ml, after overnight shaking): − (translucent solution with precipitation)
Appearance in cyclodextrin (HPβCD 30% w/w, ticagrelor 14 mg/ml, after 5 min of shaking): − (translucent solution with precipitation)
Appearance in cyclodextrin (HPβCD 30% w/w, ticagrelor 14 mg/ml, after 30 min of shaking): − (translucent solution with precipitation)
Appearance in cyclodextrin (HPβCD 30% w/w, ticagrelor 14 mg/ml, after 60 min of shaking): − (translucent solution with precipitation)
Appearance in cyclodextrin (HPβCD 30% w/w, ticagrelor 14 mg/ml, after 3 h of shaking): − (translucent solution with precipitation)
Appearance in cyclodextrin (HPβCD 30% w/w, ticagrelor 14 mg/ml, after overnight shaking): − (translucent solution with precipitation)
Appearance in cyclodextrin (HPβCD 35% w/w, ticagrelor 5 mg/ml, after 5 min of shaking): +/−
Appearance in cyclodextrin (HPβCD 35% w/w, ticagrelor 5 mg/ml, after 30 min of shaking): +/−
Appearance in cyclodextrin (HPβCD 35% w/w, ticagrelor 5 mg/ml, after 60 min of shaking): +/−
Appearance in cyclodextrin (HPβCD 35% w/w, ticagrelor 5 mg/ml, after 3 h of shaking): +/−
Appearance in cyclodextrin (HPβCD 35% w/w, ticagrelor 5 mg/ml, after overnight shaking): + (clear, appeared completely dissolved)
Appearance in cyclodextrin (HPβCD 35% w/w, ticagrelor 10 mg/ml, after 5 min of shaking): − (translucent solution with precipitation)
Appearance in cyclodextrin (HPβCD 35% w/w, ticagrelor 10 mg/ml, after 30 min of shaking): +/−
Appearance in cyclodextrin (HPβCD 35% w/w, ticagrelor 10 mg/ml, after 60 min of shaking): +/−
Appearance in cyclodextrin (HPβCD 35% w/w, ticagrelor 10 mg/ml, after 3 h of shaking): +/−
Appearance in cyclodextrin (HPβCD 35% w/w, ticagrelor 10 mg/ml, after overnight shaking): + (clear, appeared completely dissolved)
Appearance in cyclodextrin (HPβCD 35% w/w, ticagrelor 14 mg/ml, after 5 min of shaking): − (translucent solution with precipitation)
Appearance in cyclodextrin (HPβCD 35% w/w, ticagrelor 14 mg/ml, after 30 min of shaking): +/−
Appearance in cyclodextrin (HPβCD 35% w/w, ticagrelor 14 mg/ml, after 60 min of shaking): +/−
Appearance in cyclodextrin (HPβCD 35% w/w, ticagrelor 14 mg/ml, after 3 h of shaking): +/−
Appearance in cyclodextrin (HPβCD 35% w/w, ticagrelor 14 mg/ml, after overnight shaking): +/−
Appearance in cyclodextrin (HPβCD 40% w/w, ticagrelor 5 mg/ml, after 5 min of shaking): + (clear, appeared completely dissolved)
Appearance in cyclodextrin (HPβCD 40% w/w, ticagrelor 5 mg/ml, after 30 min of shaking): + (clear, appeared completely dissolved)
Appearance in cyclodextrin (HPβCD 40% w/w, ticagrelor 5 mg/ml, after 60 min of shaking): + (clear, appeared completely dissolved)
Appearance in cyclodextrin (HPβCD 40% w/w, ticagrelor 5 mg/ml, after 3 h of shaking): + (clear, appeared completely dissolved)
Appearance in cyclodextrin (HPβCD 40% w/w, ticagrelor 5 mg/ml, after overnight shaking): + (clear, appeared completely dissolved)
Appearance in cyclodextrin (HPβCD 40% w/w, ticagrelor 10 mg/ml, after 5 min of shaking): − (translucent solution with precipitation)
Appearance in cyclodextrin (HPβCD 40% w/w, ticagrelor 10 mg/ml, after 30 min of shaking): +/−
Appearance in cyclodextrin (HPβCD 40% w/w, ticagrelor 10 mg/ml, after 60 min of shaking): +/−
Appearance in cyclodextrin (HPβCD 40% w/w, ticagrelor 10 mg/ml, after 3 h of shaking): +/−
Appearance in cyclodextrin (HPβCD 40% w/w, ticagrelor 10 mg/ml, after overnight shaking): + (clear, appeared completely dissolved)
Appearance in cyclodextrin (HPβCD 40% w/w, ticagrelor 14 mg/ml, after 5 min of shaking): − (translucent solution with precipitation)
Appearance in cyclodextrin (HPβCD 40% w/w, ticagrelor 14 mg/ml, after 30 min of shaking): +/−
Appearance in cyclodextrin (HPβCD 40% w/w, ticagrelor 14 mg/ml, after 60 min of shaking): +/−
Appearance in cyclodextrin (HPβCD 40% w/w, ticagrelor 14 mg/ml, after 3 h of shaking): +/−
Appearance in cyclodextrin (SBECD 35% w/w, ticagrelor 5 mg/ml, after 5 min of shaking): − (translucent solution with precipitation)
Appearance in cyclodextrin (SBECD 35% w/w, ticagrelor 5 mg/ml, after 30 min of shaking): +/−
Appearance in cyclodextrin (SBECD 35% w/w, ticagrelor 5 mg/ml, after 60 min of shaking): +/−
Appearance in cyclodextrin (SBECD 35% w/w, ticagrelor 5 mg/ml, after 3 h of shaking): +/−
Appearance in cyclodextrin (SBECD 35% w/w, ticagrelor 5 mg/ml, after overnight shaking): − (translucent solution with precipitation)
Appearance in cyclodextrin (SBECD 35% w/w, ticagrelor 10 mg/ml, after 5 min of shaking): − (translucent solution with precipitation)
Appearance in cyclodextrin (SBECD 35% w/w, ticagrelor 10 mg/ml, after 30 min of shaking): − (translucent solution with precipitation)
Appearance in cyclodextrin (SBECD 35% w/w, ticagrelor 10 mg/ml, after 60 min of shaking): − (translucent solution with precipitation)
Appearance in cyclodextrin (SBECD 35% w/w, ticagrelor 10 mg/ml, after 3 h of shaking): − (translucent solution with precipitation)
Appearance in cyclodextrin (SBECD 35% w/w, ticagrelor 10 mg/ml, after overnight shaking): − (translucent solution with precipitation)
Appearance in cyclodextrin (SBECD 35% w/w, ticagrelor 14 mg/ml, after 5 min of shaking): − (translucent solution with precipitation)
Appearance in cyclodextrin (SBECD 35% w/w, ticagrelor 14 mg/ml, after 30 min of shaking): − (translucent solution with precipitation)
Appearance in cyclodextrin (SBECD 35% w/w, ticagrelor 14 mg/ml, after 60 min of shaking): − (translucent solution with precipitation)
Appearance in cyclodextrin (SBECD 35% w/w, ticagrelor 14 mg/ml, after 3 h of shaking): − (translucent solution with precipitation)
Appearance in cyclodextrin (SBECD 35% w/w, ticagrelor 14 mg/ml, after overnight shaking): − (translucent solution with precipitation)
Appearance in cyclodextrin (SBECD 40% w/w, ticagrelor 10 mg/ml, after 5 min of shaking): − (translucent solution with precipitation)
Appearance in cyclodextrin (SBECD 40% w/w, ticagrelor 10 mg/ml, after 30 min of shaking): − (translucent solution with precipitation)
Appearance in cyclodextrin (SBECD 40% w/w, ticagrelor 10 mg/ml, after 60 min of shaking): − (translucent solution with precipitation)
Appearance in cyclodextrin (SBECD 40% w/w, ticagrelor 10 mg/ml, after 3 h of shaking): − (translucent solution with precipitation)
Appearance in cyclodextrin (SBECD 40% w/w, ticagrelor 10 mg/ml, after overnight shaking): − (translucent solution with precipitation)
Appearance in cyclodextrin (SBECD 40% w/w, ticagrelor 14 mg/ml, after 5 min of shaking): − (translucent solution with precipitation)
Appearance in cyclodextrin (SBECD 40% w/w, ticagrelor 14 mg/ml, after 30 min of shaking): − (translucent solution with precipitation)
Appearance in cyclodextrin (SBECD 40% w/w, ticagrelor 14 mg/ml, after 60 min of shaking): − (translucent solution with precipitation)
Appearance in cyclodextrin (SBECD 40% w/w, ticagrelor 14 mg/ml, after 3 h of shaking): − (translucent solution with precipitation)
Appearance in cyclodextrin (SBECD 40% w/w, ticagrelor 14 mg/ml, after overnight shaking): − (translucent solution with precipitation)
Appearance on standing (ticagrelor 5 mg/ml in HPBCD 40%, 35% or 30% w/w in milliQ water, at least three days at room temperature and several days at 4° C.): remained clear
